Reference: patent US11464224B2, “Liquid spreading composition with ectoparasiticidal activity, a method and use thereof for combating ectoparasites in human and veterinary medicine, as well as in agricultural, horticultural and/or garden environments” (priority 2014, dated 2022)
Read-outs that look alike come from different tables or passages of the source.

How the values were obtained:
[1] = Spreading test: 5 μl drop on glass plate, area covered after 30 min; assay type: physicochemical; settings: 25° C.
Text: The following tests have been performed to measure and compare spreading properties of the composition prepared according to Example 1 (N) with Isopropyl Myristate (IPM) and Diethylene Glycol Monoethyl Ether (DGME), known from the state of art as spreading agents. All compositions acted as a carrier of an active insecticidal substance: clove oil (an insect repellent), S-Methoprene (biochemical pesticide interfering with an insect's lifecycle and preventing it from reaching maturity or reproducing) or Etofenprox (neurotoxic insecticide, which disturbs insect nervous systems).
Area (S) of the surface (cm^2) covered by the composition has been measured after 30 min. As an alternative spreading indicator one might also employ Emollient Skin Spreading Factor as defined by Croda (Croda DS-128, Emollient Skin Spreading Factor (1998)).
The following tests have been performed to measure and compare spreading properties of the composition prepared according to Example 1 with ectoparasiticidal compositions known from the state of art. As in the previous tests 5 μl drop of the composition has been applied in the middle of a glass plate at 25° C. Area of the surface (cm^2) covered by the composition has been measured after 30 min.

[2] = tested on: adult lice; settings: cited from earlier work

Structure (SMILES) | S, area of the surface covered by the composition (active substance carriers) [1] | Mortality of adult lice ([2]; concentration below 70% by weight) | Mortality of adult lice ([2]; concentration of over 80% by weight)
CCCCCCCCCCCCCC(=O)OC(C)C [compound 10, Isopropyl Myristate] | 0.6 cm^2 | less than 20% | 100%
CCOCCOCCO [compound 11, Diethylene Glycol Monoethyl Ether] | 0.6 cm^2 |  | 
